{"source": "patent US20050009862A1", "about": "“Method for promoting uninterrupted sleep by administration of trospium chloride” (priority 2003, published 2005)", "format_in_all_cases": "in vivo, human", "key": {"[1]": {"tested_on": "Patients with overactive bladder associated with predominant urge incontinence and complaining of frequent wakefulness throughout the night", "test": "Example 2: single dose before sleeping in overactive bladder patients with frequent wakefulness at night", "settings": "20 mg given 0.5 h before sleeping", "protocol": "Patients with overactive bladder associated with predominant urge incontinence and complaining of frequent wakefulness throughout the night due to repeated urges to urinate are given 20 mg of trospium chloride 0.5 h before sleeping."}, "[2]": {"tested_on": "patients with overactive bladder (OAB) associated with predominant urge incontinence", "test": "Phase III multicenter, double-blind, placebo-controlled 12-week study of trospium chloride 20 mg twice daily (#IP631-003), efficacy from patient urinary diary", "excerpt": "A multi-center, parallel, randomized, double-blind, placebo controlled study (#IP631-003) was based on data collected as a result of administering the IUSS during a 12-week^1-clinical trial of patients with overactive bladder (OAB) associated with predominant urge incontinence—for trospium chloride in the United States. For full details on the clinical study ethics, administration, objectives and design, selection of study population, treatments, efficacy and safety variables and statistical methodology please refer to the clinical study protocol #IP631-003 and the ‘Final Report for the Double-Blind Phase’ prepared by Quintiles Inc.\nThe IUSS (Appendix A) asks patients about their ‘degree of urgency’ of their toilet voids (as meant to describe the urge to urinate). Patients are asked to rate the degree of urgency they felt before reaching the toilet for a toilet void (defined in the study as urination in the toilet). The instructions state that “Sometimes you may feel a very strong urge to urinate, and at other times, you may feel a milder urge prior to the onset of a toilet void. Rate this feeling by circling 0, 1, 2 or 3.” The instructions specify the following four response options: • 0: None—no urgency; • 1: Mild—awareness of urgency, but is easily tolerated and you can continue with your usual activity or tasks; • 2: Moderate—enough urgency discomfort that it interferes with or shortens your usual activity or tasks; and • 3: Severe—extreme urgency discomfort that abruptly stops all activity or tasks.\nThis single-item Urgency Severity Scale was contained within a ‘Patient Urinary Diary’, which was completed by all patients during four discrete one-week periods in the course of the 12-week double-blind trial (baseline and study treatment weeks 1, 4 and 12). During each of the one-week data collection periods, patients completed the diary every day for a total of seven days. […] In the diary, an urge leak was defined as a leakage due to a very strong need or desire to urinate. A stress leak was defined as being a result of coughing, sneezing, standing, laughing, exercise, or other physical activity/movement exerting pressure on the bladder. In addition, during the last two days of the 7-day diary collection period (days 6 and 7), patients collected and measured all urine volume for each and every toilet void and recorded this within the diary.\nThe study population for the clinical trial was 523 patients who received at least one dose of the study medication. Patients who entered the trial were required to have overactive bladder, defined as: • Urinary frequency of ≧70 toilet voids per 7 days (i.e. ≧10 toilet voids per day) as recorded in a patient urinary diary during a “washout” period; • Symptoms of urgency (i.e. sudden desire to toilet void); • Pure urge or mixed urinary incontinence with predominant urge incontinence.\nTrospium chloride is an anticholinergic agent with predominantly peripheral antimuscarinic activity. Its mechanism enables the detrusor to relax, inhibiting evacuation of the bladder. Patients were randomized on a 1:1 basis to receive either placebo or trospium chloride. Patients receiving trospium chloride took one 20-mg tablet twice daily. Those receiving placebo took one placebo tablet twice daily. The identity of the study medication was blinded.\nPatients completed a patient diary on a daily basis during four one-week data collection windows: baseline, week 1, week 4 and week 12. The diary collected the following patient-reported outcome data: • IUSS; • Number of toilet voids; • Number of urge incontinence episodes, and separately, stress incontinence episodes; • Volume voided (mL), collected on the last 2 of 7 days of the 7 day diary.\nA multicenter, double-blind, placebo-controlled study of 20 mg, twice-daily trospium chloride for 12 weeks followed by a 9-month, open-label treatment phase in patients with overactive bladder. […]"}, "[3]": {"tested_on": "patients with overactive bladder (OAB) associated with predominant urge incontinence", "test": "Same Phase III study, safety (adverse events, clinical laboratory tests, vital signs, ECG)", "protocol": "A multicenter, double-blind, placebo-controlled study of 20 mg, twice-daily trospium chloride for 12 weeks followed by a 9-month, open-label treatment phase in patients with overactive bladder.\nMulticenter, parallel, randomized, double-blind, placebo-controlled trial of patients with overactive bladder (OAB) associated with predominant urge incontinence. Patients who were currently receiving OAB drug therapy were to begin treatment after a 3-week washout period that included the 7-day patient urinary diary collection. Patients who were not currently receiving OAB drug therapy (i.e., naive patients) could begin treatment with study medication following their 7-day patient urinary diary collection and continued for a total double-blind treatment duration of 12 weeks.\nPatients were randomized on a 1:1 basis to receive either placebo or trospium chloride 20 mg twice daily during the double-blind treatment segment of the study. The randomization schedule for patients was stratified by the mean baseline number of micturitions (i.e., toilet voids) per 24 hours (collected via the patient urinary diary over 7 days); specifically, using the stratified categories of 10 to 15, 16 to 20, and ≧21 mean micturitions per 24 hours. Patients were periodically evaluated during the 12-week treatment segment and were to return on Day 84 for the Week 12 assessments.\nAdverse events (AEs), clinical laboratory tests, vital signs, and 12-lead electrocardiograms (ECGs).\nThe Fisher's Exact test was used to analyze adverse events. Other categorical data were analyzed using the Cochran-Mantel-Haenszel (CMH) procedure with center as the stratification variable. For all continuous data analyses, an analysis of variance (ANOVA) model with center and treatment was used."}, "[4]": {"tested_on": "People complaining of frequent wakefulness throughout the night due to repeated urges to urinate", "test": "Example 3: single dose before sleeping in people with frequent wakefulness at night", "settings": "20 mg given 1.0 h before sleeping", "protocol": "People complaining of frequent wakefulness throughout the night due to repeated urges to urinate are given 20 mg of trospium chloride 1.0 h before sleeping."}}}
{"smiles": "O=C(O[C@H]1C[C@H]2CC[C@@H](C1)[N+]21CCCC1)C(O)(c1ccccc1)c1ccccc1", "note": "[Trospium, 3-alpha-benziloyloxynortropane-8-spiro-1′-pyrrolidinium chloride]", "values": [{"measurement": "Sleep during the normal sleep period", "setting": "[1]", "value": "uninterrupted sleep throughout their normal sleep periods"}, {"measurement": "Mean change from baseline: Number of toilet voids/24 hours", "setting": "[2]; Week 12, 20 mg oral tablet twice daily, N = 253, ITT:LOCF, placebo −1.29, P <0.0001", "value": "−2.37"}, {"measurement": "Mean change from baseline: Volume voided (mL) per toilet void/24 hours", "setting": "[2]; Week 12, 20 mg twice daily, N = 248, ITT:LOCF, placebo 7.72, P <0.0001", "value": 32.14, "unit": "mL"}, {"measurement": "Mean change from baseline: Urgency severity score associated with toilet voids (IUSS, 0-3)", "setting": "[2]; Week 12, 20 mg twice daily, N = 253, ITT:LOCF, placebo −0.04, P 0.0001", "value": "−0.22"}, {"measurement": "Mean change from baseline: Number of nocturnal toilet voids/24 hours", "setting": "[2]; Week 12, 20 mg twice daily, N = 253, ITT:LOCF, placebo −0.29, P 0.0255", "value": "−0.47"}, {"measurement": "Mean change from baseline: Number of urge incontinence episodes/24 hours", "setting": "[2]; Week 12, 20 mg twice daily, N = 253, ITT:LOCF, placebo −1.98, P 0.0118 (ranked ANOVA)", "value": "−2.20"}, {"measurement": "Change in average urgency severity per 24 hours compared with placebo", "setting": "[2]; at Weeks 1, 4, and 12", "value": "significant decrease"}, {"measurement": "Change in average volume voided compared with placebo", "setting": "[2]; at Weeks 1, 4, and 12", "value": "statistically significant increase"}, {"measurement": "Change in average number of toilet voids per 24 hours compared with placebo", "setting": "[2]; at Weeks 1, 4, and 12, improvement = decrease", "value": "statistically significant (p≦0.05) improvement"}, {"measurement": "Change in average number of urge incontinence episodes per 24 hours compared with placebo", "setting": "[2]; at Weeks 4 and 12, improvement = decrease", "value": "statistically significant (p≦0.05) improvement"}, {"measurement": "Onset of action during Week 1 for effect on toilet voids, urge incontinence episodes, and total micturitions per 24 hours", "setting": "[2]; consistently significant effects by Day 7", "value": "superior when compared with placebo"}, {"measurement": "Average reduction in mean number of urgency episodes (IUSS severity >0)", "setting": "[2]; over the 12-week trial, baseline mean 11.29, placebo reduction 1.08, p<0.01", "value": 2.30, "unit": "urgency episodes"}, {"measurement": "Overall safety and tolerability", "setting": "[3]; 20 mg twice daily, 12 weeks", "value": "safe and generally well tolerated"}, {"measurement": "Patients with QTcF intervals >500 msec that had increased by >60 msec from baseline", "setting": "[3]; 1 patient in each treatment group, no clinical signs, resolved at endpoint", "value": 1, "unit": "patient"}, {"measurement": "Patients in whom study medication was permanently discontinued due to TEAEs (percent)", "setting": "[3]; 12-week double-blind phase, 20 mg twice daily, placebo 5.7%", "value": 8.8, "unit": "%"}, {"measurement": "Patients in whom study medication was permanently discontinued due to TEAEs (number)", "setting": "[3]; 12-week double-blind phase, 20 mg twice daily, placebo 15 patients", "value": 23, "unit": "patients"}, {"measurement": "Patients who experienced an adverse event leading to death", "setting": "[3]; person, hemorrhagic stroke on Day 57, assessed as remotely related to study medication", "value": 1, "unit": "patient"}, {"measurement": "Most common TEAEs that led to discontinuation of study medication", "setting": "[3]; trospium group", "value": "dry mouth, constipation, abdominal pain NOS, and urinary retention"}, {"measurement": "Sleep during the normal sleep period", "setting": "[4]", "value": "uninterrupted sleep throughout their normal sleep periods"}]}
